Test results taken from patent publication US20220161456A1, “S[…] PRESERVATIVE COMPOSITION COMPRISING POLYMERIC BETAINE AND CARBAMATE” (Troy Corporation, priority 2019, published 2022).

Tests used:
Experiment in all cases: EUCAST 96-well plate fungal growth inhibition (MIC)
Type in all cases: cell-based
[1] = tested on: Aspergillus niger (ATCC #6275); design: key to growth of Aspergillus niger in 96-well plates: (+) in each block indicates growth; (−) indicates no growth, i.e., the inhibitor was effective; conditions: for MIC: Aspergillus niger ATCC 6275, 3 days at 35° C.
Procedure: (§1) (A) 0.17 g of 60% DPAB aqueous solution (ProTek® PBT or Polymeric Betaine EP or Polymeric Betaine Technical Grade Active Ingredient Wood Preservative, Troy Chemical Corporation, Newark, N.J.) was diluted in 9.83 g ethanol by stirring to form a concentrate containing 1% DPAB.
(§2) (B) 0.25 g of 40% IPBC solvent solution (Polyphase® AF-1, Troy Chemical Corporation, Newark, N.J.) was diluted in 9.75 g ethanol by stirring to form a concentrate containing 1% IPBC.
(§3) (C) 21.04 g of 60% DPAB aqueous solution (ProTek® PBT or Polymeric Betaine EP or Polymeric Betaine Technical Grade Active Ingredient Wood Preservative, Troy Chemical Corporation, Newark, N.J.), 6.25 g of 40% IPBC solvent solution (Polyphase AF-1, Troy Chemical Corporation, Newark, N.J.) and 22.74 g of ethanol were mixed and stirred. The resulting concentrate contained 25% polymeric betaine and 5% IPBC. The weight ratio of polymeric betaine to IPBC was 5:1. 0.33 g of this IPBC/polymeric betaine concentrate was diluted in 9.67 g of ethanol to form a use-dilution containing about 0.83% DPAB and 0.17% IPBC.
(§4) Solutions prepared as described above were tested in 96-well plates for their ability to inhibit fungal growth. The solutions were tested according to the EUCAST methodology as described in Rodriguez-Tudela et al. 2006 “Antifungal susceptibility testing in Aspergillus spp. according to EUCAST methodology,” the contents of which are incorporated by reference herein. The solutions were checked for inhibition against fungal organisms Aspergillus niger (ATCC #6275), Aureobasidium pullulans (ATCC #9348), Penicillium funiculosum (ATCC #11797) and Trichoderma pseudokoningii (ATCC #26801). This method is described below:
(§5) (1) Prepared preservative test wells by adding 2 microliters of each 1% preservative solution formulation to 198 microliters of 2xRPMI-MOPS-2% Glucose in each column “1” in duplicate.
(§6) (2) Added 100 microliters of 2xRPMI-MOPS-2% Glucose to the remaining columns.
(§7) (3) Performed 2-fold dilutions down the columns to column “12”.
(§8) (4) Prepared suspension of microorganisms from a 3-5 day old PDA slants by flooding slant with 1 mL deionized water and 0.1% Tween-20.
(§9) (5) Suspension strength was determined via hemocytometer then adjusted to 1×10^6 spores/mL with sterile deionized water.
(§10) (6) Added 100 microliters of the microorganism suspension to all wells except for sterility (−) controls containing test media. The water used to prepare the fungal suspensions was added to sterility (−) control wells.
(§11) (7) The inoculated 96-well plates were incubated for 3 days at 35° C.
(§12) (8) After incubation, fungal growth was evaluated by visual growth in test wells. Minimum inhibitory concentration (MIC) is recorded in ppm and defined as the lowest concentration of fungicide that produces no visual changes in turbidity in the test wells. (+) in each block indicates growth and (−) indicates no growth, i.e., the inhibitor was effective.
(§13) (9) The experiment is only considered valid if growth is observed in the positive (+) control wells and no growth is observed in the negative control wells.
(§14) In order to show more directly the possible synergy in the invention, the results are presented by applying the Synergy Index (S.I.). Minimal inhibitory concentration of the composition of this invention (mixture of DPAB and IPBC) are analyzed using the following equation:
(§15) MCA=Concentration of compound A in parts per million, acting alone, which prevents fungal growth at the reference point
(§16) MCA′=Concentration of compound A in parts per million, in the mixture, which prevents fungal growth at the reference point
(§17) MCB=Concentration of compound B in parts per million, acting alone, which prevents fungal growth at the reference point
(§18) MCB′=Concentration of compound B in parts per million, in the mixture, which prevents fungal growth at the reference point
(§19) When SI is greater than 2, antagonism is indicated. […] When SI is between 0.5 and 2, the action of biocides is additive.

[2] = tested on: Penicillium funiculosum (ATCC #11797); design: key to growth of Penicillium funiculosum in 96-well plates: (+) in each block indicates growth; (−) indicates no growth, i.e., the inhibitor was effective; conditions: for MIC: Penicillium funiculosum ATCC 11797, 3 days at 35° C.
Procedure: as §1, §2, §3, §4, §5, §6, §7, §8, §9, §10, §11
(8) After incubation, fungal growth was evaluated by visual growth in test wells. Minimum inhibitory concentration (MIC) is recorded in ppm and defined as the lowest concentration of fungicide that produces no visual changes in turbidity in the test wells.
Minimal inhibitory concentration of the composition of this invention (mixture of DPAB and IPBC) are analyzed using the following equation:
as §15, §16, §17, §18, §19

[3] = tested on: Trichoderma pseudokoningii (ATCC #26801); design: key to growth of Trichoderma pseudokoningii in 96-well plates: (+) in each block indicates growth; (−) indicates no growth, i.e., the inhibitor was effective; conditions: for MIC: Trichoderma pseudokoningii ATCC 26801, 3 days at 35° C.
Procedure: as §1, §2, §3, §4, §5, §6, §7, §8, §9, §10, §11, §12, §13, §14, §15, §16, §17, §18, §19

Row | Molecule | MIC [1] | growth of Aspergillus niger in 96-well plates ([1]; well 1, 50.0 ppm active) | growth of Aspergillus niger in 96-well plates ([1]; well 2, 25.0 ppm active) | growth of Aspergillus niger in 96-well plates ([1]; well 3, 12.5 ppm active) | growth of Aspergillus niger in 96-well plates ([1]; well 4, 6.25 ppm active) | growth of Aspergillus niger in 96-well plates ([1]; well 5, 3.13 ppm active) | growth of Aspergillus niger in 96-well plates ([1]; well 6, 1.56 ppm active) | growth of Aspergillus niger in 96-well plates ([1]; well 7, 0.78 ppm active) | growth of Aspergillus niger in 96-well plates ([1]; well 8, 0.39 ppm active) | growth of Aspergillus niger in 96-well plates ([1]; well 9, 0.20 ppm active) | growth of Aspergillus niger in 96-well plates ([1]; well 10, 0.10 ppm active) | growth of Aspergillus niger in 96-well plates ([1]; well 11, 0.05 ppm active) | growth of Aspergillus niger in 96-well plates ([1]; well 12, 0.02 ppm active) | MIC [2] | growth of Penicillium funiculosum in 96-well plates ([2]; well 1, concentration 50.00) | growth of Penicillium funiculosum in 96-well plates ([2]; well 2, concentration 25.00) | growth of Penicillium funiculosum in 96-well plates ([2]; well 3, concentration 12.50) | growth of Penicillium funiculosum in 96-well plates ([2]; well 4, concentration 6.25) | growth of Penicillium funiculosum in 96-well plates ([2]; well 5, concentration 3.13) | growth of Penicillium funiculosum in 96-well plates ([2]; well 6, concentration 1.56) | other results
1 | CCCCNC(=O)OCC#CI [IPBC, 3-iodo-2-propynyl butyl carbamate] | 0.78 ppm | − | − | − | − | − | − | − | + | + | + | + | + | 0.78 ppm | − | − | − | − | − | − | growth of Penicillium funiculosum in 96-well plates ([2]; well 7, concentration 0.78): −; growth of Penicillium funiculosum in 96-well plates ([2]; well 8, concentration 0.39): +; growth of Penicillium funiculosum in 96-well plates ([2]; well 9, concentration 0.20): +; growth of Penicillium funiculosum in 96-well plates ([2]; well 11, concentration 0.05): +; growth of Penicillium funiculosum in 96-well plates ([2]; well 12, concentration 0.02): +; MIC [3]: 6.25 ppm; growth of Trichoderma pseudokoningii in 96-well plates ([3]; well 1, 50.00 ppm active): −; growth of Trichoderma pseudokoningii in 96-well plates ([3]; well 2, 25.00 ppm active): −; growth of Trichoderma pseudokoningii in 96-well plates ([3]; well 3, 12.50 ppm active): −; growth of Trichoderma pseudokoningii in 96-well plates ([3]; well 4, 6.25 ppm active): −; growth of Trichoderma pseudokoningii in 96-well plates ([3]; well 5, 3.13 ppm active): +; growth of Trichoderma pseudokoningii in 96-well plates ([3]; well 6, 1.56 ppm active): +; growth of Trichoderma pseudokoningii in 96-well plates ([3]; well 7, 0.78 ppm active): +; growth of Trichoderma pseudokoningii in 96-well plates ([3]; well 8, 0.39 ppm active): +; growth of Trichoderma pseudokoningii in 96-well plates ([3]; well 9, 0.20 ppm active): +; growth of Trichoderma pseudokoningii in 96-well plates ([3]; well 10, 0.10 ppm active): +; growth of Trichoderma pseudokoningii in 96-well plates ([3]; well 11, 0.05 ppm active): +; growth of Trichoderma pseudokoningii in 96-well plates ([3]; well 12, 0.02 ppm active): +
2 | didecyl bis(hydroxyethyl) ammonium borate [DPAB] | 12.50 ppm | − | − | − | + | + | + | + | + | + | + | + | + | 6.25 ppm | − | − | − | − | + | + | growth of Penicillium funiculosum in 96-well plates ([2]; well 7, concentration 0.78): +; growth of Penicillium funiculosum in 96-well plates ([2]; well 8, concentration 0.39): +; growth of Penicillium funiculosum in 96-well plates ([2]; well 9, concentration 0.20): +; growth of Penicillium funiculosum in 96-well plates ([2]; well 10, concentration 0.10): +; growth of Penicillium funiculosum in 96-well plates ([2]; well 11, concentration 0.05): +; growth of Penicillium funiculosum in 96-well plates ([2]; well 12, concentration 0.02): +; MIC [3]: 25.00 ppm; growth of Trichoderma pseudokoningii in 96-well plates ([3]; well 1, 50.00 ppm active): −; growth of Trichoderma pseudokoningii in 96-well plates ([3]; well 2, 25.00 ppm active): −; growth of Trichoderma pseudokoningii in 96-well plates ([3]; well 3, 12.50 ppm active): +; growth of Trichoderma pseudokoningii in 96-well plates ([3]; well 4, 6.25 ppm active): +; growth of Trichoderma pseudokoningii in 96-well plates ([3]; well 5, 3.13 ppm active): +; growth of Trichoderma pseudokoningii in 96-well plates ([3]; well 6, 1.56 ppm active): +; growth of Trichoderma pseudokoningii in 96-well plates ([3]; well 7, 0.78 ppm active): +; growth of Trichoderma pseudokoningii in 96-well plates ([3]; well 8, 0.39 ppm active): +; growth of Trichoderma pseudokoningii in 96-well plates ([3]; well 9, 0.20 ppm active): +; growth of Trichoderma pseudokoningii in 96-well plates ([3]; well 10, 0.10 ppm active): +; growth of Trichoderma pseudokoningii in 96-well plates ([3]; well 11, 0.05 ppm active): +; growth of Trichoderma pseudokoningii in 96-well plates ([3]; well 12, 0.02 ppm active): +
